The results in this text go back to US20250353864A1, “INDAZOLE CONTAINING MACROCYCLES AND THEIR USE” (BLOSSOMHILL THERAPEUTICS, INC., priority 2022, published 2025).

The structures appear in SMILES notation.

For orientation: IC50 means the concentration that gives 50% inhibition.

Format in all cases: biochemical
The target of test [1] is EGFR Δ746-750/C797S mutant (Homo sapiens (Human), UniProt P00533, C797S/DEL746-750). Nature of the test: HotSpot radiometric kinase assay, EGFR Δ746-750/C797S mutant. Conditions: 10 μM ATP. A digest of the protocol: (§1)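 IC50 values derive from curve fits of 33P incorporation measured by P81 filter binding. ATP was 10 μM final; incubation lasted 120 min at room temperature after ~20 min compound preincubation.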

For test [2], the target named is CLK3 (Homo sapiens (Human), UniProt P49761). Nature of the test: Inhibition of CLK3 kinase activity evaluated at Nanosyn (ADP-Glo). The conditions noted are these: ADP-Glo luminescence. Put shortly: (§2)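 Percent inhibition derived from luminescent ADP detection (ADP-Glo), normalised to DMSO-only and enzyme-free wells. Reactions ran in HEPES pH 7.5 buffer with Mg2+, Triton X-100 and BSA, 1% DMSO, ATP-initiated, for an assay-specific time.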
For orientation: ADP-Glo turns the ADP formed in a reaction into a luminescent signal.

In test [3] the target is EGFR L858R/T790M mutant (Homo sapiens (Human), UniProt P00533, L858R/T790M). In words: HotSpot radiometric kinase assay, EGFR L858R/T790M mutant. Conditions: 10 μM ATP. Put shortly:
as §1

For test [4], the target named is EGFR (D770_N771insNPG) (Homo sapiens (Human), UniProt P00533, INS770NPG). In words: HotSpot radiometric kinase assay, EGFR (D770_N771insNPG). Conditions: 10 μM ATP, read-out: EGFR (Δ770_N771insNPG) IC50. Put shortly: as §1
Test [5] addresses EGFR L858R/T790M/C797S mutant (Homo sapiens (Human), UniProt P00533, C797S/L858R/T790M). In words: HotSpot radiometric kinase assay, EGFR L858R/T790M/C797S mutant. Conditions: 10 μM ATP. Put shortly: as §1
Test [6] addresses CLK4 (Homo sapiens (Human), UniProt Q9HAZ1). Nature of the test: Inhibition of CLK4 kinase activity evaluated at Nanosyn (ADP-Glo). The conditions noted are these: ADP-Glo luminescence. A digest of the protocol:
as §2

In test [7] the target is EGFR WT (Homo sapiens (Human), UniProt P00533). In words: HotSpot radiometric kinase assay (Reaction Biology), EGFR WT. Conditions: 10 μM ATP. A digest of the protocol: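 Kinase, substrate and cofactors are mixed in 20 mM Hepes pH 7.5 with 10 mM MgCl2, 1 mM EGTA, 2 mM DTT and 1% DMSO. Compound is added, and about 20 min later ATP/33P-ATP (10 μM final) starts a 120-min room-temperature reaction, which is then spotted onto P81 paper.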

Test [8] has as its target EGFR Δ746-750 mutant (Homo sapiens (Human), UniProt P00533, DEL746-750). In words: HotSpot radiometric kinase assay, EGFR Δ746-750 mutant. The conditions noted are these: 10 μM ATP. Put shortly: as §1
For test [9], the target named is CLK2 (Homo sapiens (Human), UniProt P49760). Nature of the test: Inhibition of CLK2 kinase activity evaluated at Nanosyn (ADP-Glo). The conditions noted are these: ADP-Glo luminescence. A digest of the protocol: as §2
Test [10] deals with EGFR L858R mutant (Homo sapiens (Human), UniProt P00533, L858R). In words: HotSpot radiometric kinase assay, EGFR L858R mutant. The conditions noted are these: 10 μM ATP. A digest of the protocol:
as §1

Test [11] deals with CLK1 (Homo sapiens (Human), UniProt P49759). In words: Inhibition of CLK1 kinase activity evaluated at Nanosyn (ADP-Glo). Conditions: ADP-Glo luminescence. Put shortly: as §2
Chain of CLK1 (P49759 whole entry): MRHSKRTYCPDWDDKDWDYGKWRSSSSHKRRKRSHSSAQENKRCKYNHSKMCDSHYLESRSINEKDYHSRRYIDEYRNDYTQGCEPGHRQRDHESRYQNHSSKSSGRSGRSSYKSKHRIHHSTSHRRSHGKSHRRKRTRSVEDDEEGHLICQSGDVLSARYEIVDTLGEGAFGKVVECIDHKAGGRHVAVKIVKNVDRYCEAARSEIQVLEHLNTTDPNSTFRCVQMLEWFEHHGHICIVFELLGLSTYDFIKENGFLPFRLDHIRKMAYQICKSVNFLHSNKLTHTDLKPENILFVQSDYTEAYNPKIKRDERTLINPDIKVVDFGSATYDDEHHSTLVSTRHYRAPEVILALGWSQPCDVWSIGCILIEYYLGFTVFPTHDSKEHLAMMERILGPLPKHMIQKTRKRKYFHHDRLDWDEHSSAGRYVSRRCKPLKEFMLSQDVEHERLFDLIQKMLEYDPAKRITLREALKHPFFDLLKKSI

Chain of CLK4 (Q9HAZ1 whole entry): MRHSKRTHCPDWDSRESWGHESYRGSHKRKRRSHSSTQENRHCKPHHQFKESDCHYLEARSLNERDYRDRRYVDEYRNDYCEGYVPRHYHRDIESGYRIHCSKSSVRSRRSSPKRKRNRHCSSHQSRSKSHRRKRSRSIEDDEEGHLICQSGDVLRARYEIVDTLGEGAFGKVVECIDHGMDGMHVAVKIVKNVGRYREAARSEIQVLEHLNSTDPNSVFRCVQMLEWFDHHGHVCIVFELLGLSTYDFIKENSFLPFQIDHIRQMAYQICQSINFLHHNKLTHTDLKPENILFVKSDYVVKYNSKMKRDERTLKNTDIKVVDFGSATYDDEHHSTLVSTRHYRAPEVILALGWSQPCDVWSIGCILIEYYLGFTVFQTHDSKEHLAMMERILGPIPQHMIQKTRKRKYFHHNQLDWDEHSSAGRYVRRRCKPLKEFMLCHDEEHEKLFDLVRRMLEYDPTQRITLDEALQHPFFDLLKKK
Chain of EGFR L858R mutant (P00533 25-1210 L858R): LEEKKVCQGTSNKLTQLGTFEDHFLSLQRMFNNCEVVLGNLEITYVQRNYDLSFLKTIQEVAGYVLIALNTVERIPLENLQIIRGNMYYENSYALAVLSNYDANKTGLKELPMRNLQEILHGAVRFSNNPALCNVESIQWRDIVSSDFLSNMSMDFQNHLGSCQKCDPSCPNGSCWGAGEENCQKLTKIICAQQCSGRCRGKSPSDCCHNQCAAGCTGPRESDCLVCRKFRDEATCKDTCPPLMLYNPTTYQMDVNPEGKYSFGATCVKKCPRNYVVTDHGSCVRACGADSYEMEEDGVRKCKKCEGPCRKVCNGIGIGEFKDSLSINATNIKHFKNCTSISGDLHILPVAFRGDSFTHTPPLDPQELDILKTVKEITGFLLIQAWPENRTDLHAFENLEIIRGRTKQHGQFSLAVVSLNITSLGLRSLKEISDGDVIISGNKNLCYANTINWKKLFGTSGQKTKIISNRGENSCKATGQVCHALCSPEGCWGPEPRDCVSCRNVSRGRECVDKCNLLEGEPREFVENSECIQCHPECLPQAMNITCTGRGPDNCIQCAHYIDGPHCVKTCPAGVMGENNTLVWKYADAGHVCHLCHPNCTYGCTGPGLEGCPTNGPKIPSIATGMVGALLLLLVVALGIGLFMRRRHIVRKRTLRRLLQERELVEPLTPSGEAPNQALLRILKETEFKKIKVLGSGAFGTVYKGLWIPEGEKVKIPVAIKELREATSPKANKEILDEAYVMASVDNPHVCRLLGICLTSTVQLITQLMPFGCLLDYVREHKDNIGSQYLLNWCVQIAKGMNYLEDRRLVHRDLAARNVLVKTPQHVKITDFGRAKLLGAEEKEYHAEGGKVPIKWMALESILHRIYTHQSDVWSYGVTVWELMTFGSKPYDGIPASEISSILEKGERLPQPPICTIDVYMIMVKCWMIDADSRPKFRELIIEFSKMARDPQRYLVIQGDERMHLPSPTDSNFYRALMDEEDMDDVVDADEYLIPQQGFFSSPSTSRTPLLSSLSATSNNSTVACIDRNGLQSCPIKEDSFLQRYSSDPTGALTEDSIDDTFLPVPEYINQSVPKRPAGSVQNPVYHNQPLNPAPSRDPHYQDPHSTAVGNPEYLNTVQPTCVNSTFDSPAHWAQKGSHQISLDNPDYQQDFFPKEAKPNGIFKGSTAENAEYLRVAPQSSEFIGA
Chain of CLK2 (P49760 whole entry): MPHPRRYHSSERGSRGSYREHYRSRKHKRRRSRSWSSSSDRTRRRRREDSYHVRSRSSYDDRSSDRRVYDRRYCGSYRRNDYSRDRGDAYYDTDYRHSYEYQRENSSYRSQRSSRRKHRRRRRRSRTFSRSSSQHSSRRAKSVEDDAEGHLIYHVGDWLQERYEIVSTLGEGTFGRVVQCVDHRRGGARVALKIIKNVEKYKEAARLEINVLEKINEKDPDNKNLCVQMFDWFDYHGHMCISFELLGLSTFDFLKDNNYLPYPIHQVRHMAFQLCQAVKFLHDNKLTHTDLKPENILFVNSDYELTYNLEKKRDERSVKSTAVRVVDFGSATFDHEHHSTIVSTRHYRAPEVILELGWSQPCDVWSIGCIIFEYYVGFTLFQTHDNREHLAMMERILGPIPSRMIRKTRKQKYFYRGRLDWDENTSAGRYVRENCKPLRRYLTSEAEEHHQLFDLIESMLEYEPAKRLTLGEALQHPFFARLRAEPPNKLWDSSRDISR
Chain of CLK3 (P49761 whole entry): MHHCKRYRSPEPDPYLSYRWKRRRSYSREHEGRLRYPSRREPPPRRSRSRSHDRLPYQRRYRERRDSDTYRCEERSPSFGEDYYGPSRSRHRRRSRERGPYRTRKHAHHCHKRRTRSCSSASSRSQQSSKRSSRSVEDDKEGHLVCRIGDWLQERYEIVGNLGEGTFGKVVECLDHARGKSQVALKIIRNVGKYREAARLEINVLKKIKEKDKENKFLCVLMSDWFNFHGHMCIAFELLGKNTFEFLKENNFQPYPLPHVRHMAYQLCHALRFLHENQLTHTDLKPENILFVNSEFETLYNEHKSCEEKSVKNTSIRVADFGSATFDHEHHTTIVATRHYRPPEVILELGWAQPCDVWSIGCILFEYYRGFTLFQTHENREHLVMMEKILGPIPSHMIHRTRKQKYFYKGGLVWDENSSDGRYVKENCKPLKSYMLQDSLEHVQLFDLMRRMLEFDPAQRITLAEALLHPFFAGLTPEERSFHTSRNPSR
Chain of EGFR (D770_N771insNPG) (P00533 other isoform, or with tags, fused parts or gaps del 1-668/ins NPG behind 770 limits assumed): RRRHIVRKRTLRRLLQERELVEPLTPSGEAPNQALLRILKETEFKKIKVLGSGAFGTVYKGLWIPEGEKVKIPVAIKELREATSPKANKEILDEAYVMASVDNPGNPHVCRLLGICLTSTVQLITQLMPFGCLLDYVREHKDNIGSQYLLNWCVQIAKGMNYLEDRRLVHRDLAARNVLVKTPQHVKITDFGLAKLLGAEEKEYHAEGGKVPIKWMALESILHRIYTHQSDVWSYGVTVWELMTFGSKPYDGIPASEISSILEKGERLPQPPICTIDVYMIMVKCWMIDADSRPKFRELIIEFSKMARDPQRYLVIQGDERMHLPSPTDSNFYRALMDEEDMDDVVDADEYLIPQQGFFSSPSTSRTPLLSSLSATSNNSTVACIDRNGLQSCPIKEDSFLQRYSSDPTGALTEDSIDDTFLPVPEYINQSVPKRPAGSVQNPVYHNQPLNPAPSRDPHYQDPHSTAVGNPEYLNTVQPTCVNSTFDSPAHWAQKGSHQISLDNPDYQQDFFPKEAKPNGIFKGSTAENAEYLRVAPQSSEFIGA
Chain of EGFR L858R/T790M mutant (P00533 25-1210 T790M/L858R): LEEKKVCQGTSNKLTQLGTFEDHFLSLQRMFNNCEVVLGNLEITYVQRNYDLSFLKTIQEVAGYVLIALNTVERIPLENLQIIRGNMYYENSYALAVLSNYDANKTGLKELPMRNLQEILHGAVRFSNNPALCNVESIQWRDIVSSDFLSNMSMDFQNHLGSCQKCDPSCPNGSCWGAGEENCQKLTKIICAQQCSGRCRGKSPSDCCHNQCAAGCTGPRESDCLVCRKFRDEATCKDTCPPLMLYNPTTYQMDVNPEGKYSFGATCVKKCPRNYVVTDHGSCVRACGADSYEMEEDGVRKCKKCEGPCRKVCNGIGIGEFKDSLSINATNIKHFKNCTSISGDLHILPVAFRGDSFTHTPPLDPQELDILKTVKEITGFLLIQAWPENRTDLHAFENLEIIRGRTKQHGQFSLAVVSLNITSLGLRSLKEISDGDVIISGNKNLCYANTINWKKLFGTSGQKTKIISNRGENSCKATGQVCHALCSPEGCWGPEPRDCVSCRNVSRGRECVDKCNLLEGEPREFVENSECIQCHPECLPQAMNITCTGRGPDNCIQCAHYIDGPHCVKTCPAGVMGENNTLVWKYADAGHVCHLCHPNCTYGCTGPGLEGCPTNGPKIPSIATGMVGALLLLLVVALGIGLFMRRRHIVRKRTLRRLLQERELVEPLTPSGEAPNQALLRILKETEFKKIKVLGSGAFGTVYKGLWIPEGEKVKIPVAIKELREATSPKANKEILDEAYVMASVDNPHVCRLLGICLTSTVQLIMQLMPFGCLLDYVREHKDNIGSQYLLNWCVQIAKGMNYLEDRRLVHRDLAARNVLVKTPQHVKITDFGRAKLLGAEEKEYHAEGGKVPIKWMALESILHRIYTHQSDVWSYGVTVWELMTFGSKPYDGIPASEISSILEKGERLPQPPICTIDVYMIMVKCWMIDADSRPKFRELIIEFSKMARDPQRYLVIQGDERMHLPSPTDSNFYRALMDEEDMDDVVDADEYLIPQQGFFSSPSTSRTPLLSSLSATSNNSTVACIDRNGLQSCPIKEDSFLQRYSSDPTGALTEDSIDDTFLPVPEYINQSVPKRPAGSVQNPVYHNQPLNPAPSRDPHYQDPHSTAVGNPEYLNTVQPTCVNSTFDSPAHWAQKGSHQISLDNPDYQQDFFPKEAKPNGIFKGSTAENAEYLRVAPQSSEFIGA

With `CCOc1nn(CCO)c2c1/C=C/c1n[nH]c3ccc(cc13)-c1cnn(C)c1O[C@@H]1CCCN(C2)C1` [Example 137, 2-[(10R,19E)-18-ethoxy-8-methyl-2,10,11,12,13,15-hexahydro-3,5-etheno-10,14-methanotripyrazolo[3,4-h:3′,4′-l:4″,3″-p][1,6]oxazacycloheptadecin-16(8H)-yl]ethan-1-ol], the IC50 in test [1] stood at 4.8 nM; in test [2], 79.2 nM; in test [3], 0.6 nM; in [4], 129 nM; in [5] it was 1.02 nM; in test [6], 1.55 nM. Besides, the IC50 is 55.3 nM in [7]; 6.59 nM in test [8]; 2.13 nM in test [9]; 7.8 nM in test [10]; 1.37 nM in [11].

Consider `CCOc1nn(CCO)c2c1/C=C/c1n[nH]c3ccc(cc13)-c1c(C)nn(C)c1O[C@@H](C)CN(C(C)C)C2` [Example 142, 2-[(10S,17E)-16-ethoxy-6,8,10-trimethyl-12-(propan-2-yl)-2,8,10,11,12,13-hexahydro-14H-3,5-ethenotripyrazolo[3,4-f:3′,4′-j:4″,3″- n][1,4]oxazacyclopentadecin-14-yl]ethan-1-ol], for which the IC50 in [1] came to 1.32 nM; in [2], 1000 nM; in [3], 1.29 nM; in test [4] it was 16.7 nM; in test [5], 1.83 nM; in test [6] it was 5.91 nM. For the same compound, the half-maximal inhibitory concentration (IC50) is 2.14 nM in test [7]; 1.11 nM in [8]; 13.9 nM in test [9]; 0.9 nM in test [10]; 11.9 nM in test [11].

As to `C[C@H]1CN(C)Cc2c(c(OC3CCN(S(C)(=O)=O)CC3)nn2C)/C=C/c2n[nH]c3ccc(cc23)-c2cnn(C)c2O1` [Example 143, (10S,17E)-16-{[1-(methanesulfonyl)piperidin-4-yl]oxy}-8,10,12,14-tetramethyl-2,10,11, 12,13,14-hexahydro-8H-3,5-ethenotripyrazolo[3,4-f 3′,4′-j:4″,3″-n][1,4]oxazacyclopentadecine], the IC50 in [1] was 41.3 nM; in test [2] it was 12.1 nM; in test [3], 1.58 nM; in [4], 1630 nM; in test [5], 4.63 nM; in test [6], 0.61 nM. The IC50 in test [7] came out at 320 nM; in [8], 39.4 nM; in test [9], 0.02 nM; in test [10] it was 39.6 nM; in test [11], 0.19 nM.

For the compound `CCOc1nn(CCO)c2c1/C=C/c1n[nH]c3ccc(cc13)-c1cnn(C)c1O[C@@H](C)CN(C(C)C)C2` [Example 151, 2-[(10S,17E)-16-ethoxy-8,10-dimethyl-12-(propan-2-yl)-2,8,10,11,12,13-hexahydro-14H-3,5-ethenotripyrazolo[3,4-f:3′,4′-j:4″,3″-n][1,4]oxazacyclopentadecin-14-yl]ethan-1-o], the half-maximal inhibitory concentration (IC50) in [1] came to 0.72 nM; in test [2], 23 nM; in test [3] it was 0.48 nM; in [4], 2.55 nM; in test [5], 0.46 nM; in [6], 0.52 nM. Further, the IC50 in test [7] was found to be 0.87 nM; in test [8] it was 0.3 nM; in [9] it was 0.04 nM; in test [10], 0.22 nM; in test [11] it was 0.24 nM.

For the compound `CCOc1nn([C@@H](C)CO)c2c1/C=C/c1n[nH]c3ccc(cc13)-c1cnn(C)c1O[C@@H](C)CN(C)C2` [Example 155], the IC50 stood at 0.86 nM in [1]; 87.4 nM in test [2]; 0.45 nM in test [3]; 6.36 nM in [4]; 0.62 nM in [5]; 0.81 nM in test [6]. Moreover, the IC50 was 1.74 nM in test [7]; 0.62 nM in [8]; 0.14 nM in test [9]; 0.34 nM in [10]; 0.43 nM in test [11].

Consider `CCOc1nn(C)c2c1/C=C/c1n[nH]c3ccc(cc13)-c1cnn(C)c1O[C@@H](C)CN(C(C)C)C2` [Example 156, (10S,17E)-16-ethoxy-8,10,14-trimethyl-12-(propan-2-yl)-2,10,11,12,13,14-hexahydro-8H-3,5-ethenotripyrazolo[3,4-f:3′,4′-j:4″,3″-n][1,4]oxazacyclopentadecine], for which the IC50 in test [1] was 3.62 nM; in test [2], 63.6 nM; in test [3], 0.88 nM; in test [4], 64.9 nM; in test [5], 1.04 nM; in test [6], 0.4 nM. Besides, the IC50 was 19.3 nM in test [7]; 1.77 nM in [8]; 0.13 nM in test [9]; 4.34 nM in [10]; 0.42 nM in [11].

Turning to `CCOc1nn(C)c2c1/C=C/c1n[nH]c3ccc(cc13)-c1cnn(C)c1O[C@@H]1CCCN(C2)C1` [Example 160, (10R,19E)-18-ethoxy-8,16-dimethyl-2,8,10,11,12,13,15,16-octahydro-3,5-etheno-10,14-methanotripyrazolo[3,4-h:3′,4′-l:4″,3″- p][1,6]oxazacycloheptadecine], the concentration for half-maximal inhibition (IC50) in test [1] was determined as 19.5 nM; in test [2], 38.2 nM; in test [3] it was 1.42 nM; in [4], 246 nM; in test [5], 1.08 nM; in test [6] it was 0.41 nM. Also, the IC50 came to 63 nM in test [7]; 13.6 nM in test [8]; 0.3 nM in test [9]; 34.4 nM in test [10]; 0.22 nM in test [11].

In the case of `Cc1nn(C)c2c1/C=C/c1n[nH]c3ccc(cc13)-c1cnn(C)c1O[C@@H](C)CN(C1CC1)C2` [Example 161, (10S,17E)-12-cyclopropyl-8,10,14,16-tetramethyl-2,10,11,12,13,14-hexahydro-8H-3,5-ethenotripyrazolo[3,4-f:3′,4′-j:4″,3″-n][1,4]oxazacyclopentadecine], the 50% inhibitory concentration (IC50) in test [1] was found to be 13.5 nM; in test [2], 164 nM; in test [3], 3.1 nM; in test [4], 191 nM; in test [5] it was 1.4 nM; in test [6], 0.57 nM. Besides, the IC50 in [7] was 171 nM; in test [8], 20 nM; in test [9], 0.14 nM; in test [10] it was 47.1 nM; in [11] it was 0.27 nM.

With `C[C@H]1CN(C)Cc2c(c(OCC(F)(F)F)nn2C)/C=C/c2n[nH]c3ccc(cc23)-c2cnn(C)c2O1` [Example 162, (10S,17E)-8,10,12,14-tetramethyl-16-(2,2,2-trifluoroethoxy)-2,10,11,12,13,14-hexahydro-8H-3,5-ethenotripyrazolo[3,4-f:3′,4′-j:4″,3″-n][1,4]oxazacyclopentadecine], the IC50 in test [1] came out at 33.5 nM; in test [2] it was 784 nM; in test [3], 1.4 nM; in test [4], 523 nM; in test [5], 0.9 nM; in test [6], 0.25 nM. Moreover, the IC50 in test [7] amounted to 238 nM; in [8] it was 30.5 nM; in test [9] it was 0.07 nM; in test [10], 47.4 nM; in test [11] it was 0.11 nM.

On to `CSCn1ncc2c1O[C@@H](C)CN(C(C)C)Cc1c(c(C)nn1C)/C=C/c1n[nH]c3ccc-2cc13` [Example 164, (10S,17E)-10,14,16-trimethyl-8-[(methylsulfanyl)methyl]-12-(propan-2-yl)-2,10,11,12,13,14-hexahydro-8H-3,5-ethenotripyrazolo[3,4-f:3′,4′-j:4″,3″-n][1,4]oxazacyclopentadecine], for which the IC50 was found to be 20.2 nM in [1]; 1000 nM in [2]; 3.23 nM in test [3]; 95.3 nM in test [4]; 1.76 nM in test [5]; 0.59 nM in test [6]. Further, the IC50 came out at 220 nM in test [7]; 33.4 nM in [8]; 0.75 nM in test [9]; 16.7 nM in test [10]; 0.39 nM in test [11].
